# Entries after “also recorded” stand apart in the source; their conditions may differ.
# Tests used:
# CLC organoids = assay: Measurement of intracellular calcium levels (Fluo-4) in CLC organoids; format: cell-based, human; settings: 1 μM Acetylcholine or 30 μM ATP
# Procedure: Intracellular calcium signaling, regulated by stimuli such as acetylcholine and ATP constitutes a key second messenger for cholangiocytes (18). CLC organoids were incubated with 25 μM of the calcium indicator Fluo-4 AM (Life technologies) for 60 minutes at 37° C. and washed 3 times with William's E medium. Fresh William's E medium with supplements was added following the third wash. The organoids were stimulated with 1 μM of Acetylcholine (Sigma-Aldrich) or 30 μM of ATP (Sigma-Aldrich), while time lapse images were taken. Each measurement was repeated in triplicate. To calculate the number of cells responding to stimulation, the number of cells loaded with Fluo-4 AM was counted by 2 different researchers prior to the start of the experiment. Following stimulation with ATP or acetylcholine the number of responding cells (increase in fluorescence) was also counted and responsiveness was expressed as the ratio of responding cells over the total number of cells loaded with Fluo-4 AM. The statistical approach for smoothing the data and plotting bands for the confidence limits please see ‘Statistical analyses’.
# hESC-Chol = settings: Dianat et al (6); cited from earlier work
structure (smiles),measurement,setting,value
Nc1ncnc2c1ncn2[C@@H]1O[C@H](COP(=O)(O)OP(=O)(O)OP(=O)(O)O)[C@@H](O)[C@H]1O [ATP],intracellular calcium levels,CLC organoids; CLC organoids loaded with Fluo-4,increasing intracellular calcium levels; also recorded: an increase in intracellular calcium levels
same,responsiveness (responding cells over total cells loaded with Fluo-4 AM),CLC organoids; CLCs,95%
same,responsiveness of hESC-Chol,hESC-Chol,70%
